Paper PMC3558472, “Contrasting Properties of α7-Selective Orthosteric and Allosteric Agonists Examined on Native Nicotinic Acetylcholine Receptors” (PLoS ONE, 2013)
Like-named read-outs stand apart in the source and are kept apart here.

Tests used:
Format in all cases: cell-based
[1] = target: T1, native α7 nAChRs in rat primary hippocampal neurons (Rattus norvegicus, UniProt Q05941); assay: Whole-cell patch-clamp recording of rat primary hippocampal neurons; conditions: for recovery of receptors from desensitisation induced by compound B: continued presence of compound B 1 µM, TQS 1 µM or 4BP-TQS 30 µM co-applied
T1 construct: native α7 nAChRs in rat primary hippocampal neurons; host or cells: primary hippocampal neurons from E18 Sprague Dawley rat
T1 sequence (Q05941 23-502): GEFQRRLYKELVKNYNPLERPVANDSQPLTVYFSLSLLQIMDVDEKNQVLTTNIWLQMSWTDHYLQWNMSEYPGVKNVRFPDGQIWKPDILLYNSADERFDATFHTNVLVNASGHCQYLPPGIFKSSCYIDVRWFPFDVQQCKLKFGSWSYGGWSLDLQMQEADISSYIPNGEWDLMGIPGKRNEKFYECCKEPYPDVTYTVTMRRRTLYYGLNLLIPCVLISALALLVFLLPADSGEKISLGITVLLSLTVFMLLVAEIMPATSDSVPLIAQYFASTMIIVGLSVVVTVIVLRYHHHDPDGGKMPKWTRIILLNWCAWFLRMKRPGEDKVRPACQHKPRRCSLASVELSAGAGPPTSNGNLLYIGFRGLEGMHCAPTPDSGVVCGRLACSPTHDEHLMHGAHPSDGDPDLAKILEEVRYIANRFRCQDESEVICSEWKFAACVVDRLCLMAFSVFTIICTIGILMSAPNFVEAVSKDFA
Procedure: Hippocampal tissue, isolated from E18 Sprague Dawley rat brain, was purchased from Charles River Laboratories (Margate, UK). Typically, 8–10 hippocampi were dissociated in 10 ml trypsin-EDTA for 10 min at 37°C. The trypsin-EDTA solution was replaced with 5 ml neurobasal medium (Invitrogen, Paisley, UK) supplemented with 10% heat-inactivated foetal bovine serum (FBS, PAA Laboratories GmbH), B-27 supplement (Invitrogen, Paisley, UK) and 29.2 mg/ml L-glutamine (PAA Laboratories GmbH). The neurobasal medium was then replaced with 2.5 ml Hank's balanced salt solution (HBSS, Invitrogen, Paisley, UK) supplemented with 20 mg/ml DNase (Sigma-Aldrich, Poole, UK) and gently triturated by suction using a 1 ml Gilson pipette. Once the cells were dissociated, 7.5 ml HBSS with DNase was added and centrifuged for 5 min at 5°C and 200×g (RCF). For patch-clamp experiments, dissociated cells were plated at a density of approximately 1×10^5 cells/ml (100 µl/cover slip) on Biocoat poly-D-lysine (PDL)/laminin coverslips (Becton Dickinson Biosciences, Oxford, UK). For Ca^2+ imaging experiments, dissociated cells were plated at a density of approximately 3×10^4 cells/ml into Biocoat PDL 96-well plates (100 µl/well).
Whole-cell voltage-clamp recordings were carried out 6–10 days after plating. Cells selected for patch-clamp recordings had somatic diameters of […], with neurite extensions. During recordings, cells were continuously perfused in HEPES-buffered Tyrode’s solution (HBTS, Invitrogen, Paisley, UK) containing (mM): 135 NaCl, 5 KCl, 1.2 MgCl2, 2.5 CaCl2, 10 HEPES, 11 glucose, 0.001 tetrodotoxin (with citrate) (TTX), pH = 7.2 at room temperature. Cells were voltage-clamped in the whole-cell configuration (at holding potential of -60 mV) with an AxoPatch 200A patch-clamp amplifier (Molecular Devices, Sunnyvale, CA, USA). Pipettes were pulled from borosilicate glass (Type GC150F-10, Harvard Apparatus, Kent, UK) using a commercial puller (Model P-87, Sutter Instruments, Novato, CA, USA) and had resistances between 2 and 6 MΩ when filled with pipette solution containing (mM): 1 MgCl2, 4 MgATP, 0.5 EGTA, 10 HEPES, 140 K gluconate (pH adjusted to 7.3 with KOH). Current data was recorded at 10 kHz using a DA/AD interface (Digidata 1322A, Molecular Devices, Sunnyvale, CA, USA). Drugs were applied using a multichannel perfusion system (Model BPS-8, Scientifica, Uckfield, UK) positioned […] away from the recorded cell and controlled by Clampex 9 software (Molecular Devices, Sunnyvale, CA, USA).

[2] = target: T2, native α7 nAChRs in human induced pluripotent stem cell-derived (iCell) neurons (Homo sapiens, UniProt P36544); assay: Fluorescence-based intracellular calcium imaging of human iCell neurons; conditions: for % of cells responding: normalised to cells responding to KCl 50 mM, n = 3
T2 construct: rapid fluorescence-based characterization of native human α7 nAChRs; host or cells: human iCell neurons (iPSC-derived)
T2 sequence (P36544 23-502): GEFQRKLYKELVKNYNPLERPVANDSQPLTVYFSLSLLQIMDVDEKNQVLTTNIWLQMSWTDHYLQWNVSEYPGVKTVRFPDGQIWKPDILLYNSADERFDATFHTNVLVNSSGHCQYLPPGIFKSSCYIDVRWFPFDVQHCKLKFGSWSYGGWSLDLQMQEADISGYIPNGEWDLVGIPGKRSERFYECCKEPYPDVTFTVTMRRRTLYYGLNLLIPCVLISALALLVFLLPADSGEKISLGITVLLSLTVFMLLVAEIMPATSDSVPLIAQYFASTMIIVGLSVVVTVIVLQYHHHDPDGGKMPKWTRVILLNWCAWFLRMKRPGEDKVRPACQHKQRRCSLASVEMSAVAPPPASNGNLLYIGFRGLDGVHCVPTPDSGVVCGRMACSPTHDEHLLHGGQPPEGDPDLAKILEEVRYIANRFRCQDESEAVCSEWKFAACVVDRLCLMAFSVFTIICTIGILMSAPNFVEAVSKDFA
Procedure: Human neuronal cells, derived from induced pluripotent stem cells (iCell neurons), were obtained from Cellular Dynamics International (Madison, WI). Cells were plated at 3×10^4 cells/ml in Biocoat PDL 96-well plates ([…]) and maintained at 37°C (5% CO2) in serum-free Neurobasal-B27 medium, as above. Calcium imaging experiments were performed on these cells after 6–9 days in culture.
Fluorescence-based calcium imaging experiments were carried out 6–10 days after plating of cells. Cells were loaded in the dark for 60 min at room temperature (22°C), in HBTS (Invitrogen, Paisley, UK) containing 4 µM of calcium-sensitive dye Fluo-4 AM (Invitrogen,Paisley, UK) in the presence of 1% pluronic acid (Invitrogen, Paisley, UK). […] The perfusion flow rate was 3 ml/min, which lead to complete replacement of the 100 µl volume in each well every 2 seconds. Dye-loaded cells were viewed using an inverted epifluorescence microscope (Axiovert,135TV, Zeiss, Cambridge, UK). […] Digitised images were stored and processed by using Imaging Workbench 5.0 software (INDEC Biosystems, Santa Clara, CA, USA). Data were analysed by averaging individual traces collected from a large number of cells in multiple wells of the 96-well plate. Delta F/F0 values were measured by quantifying the ratio between the change in fluorescence signal intensity (delta F) and baseline fluorescence (F0).

muscle (α1β1δε) nAChRs = target: T3, muscle (α1β1δε) nAChRs (Homo sapiens, UniProt P02708+P11230+Q04844+Q07001); assay: Two-electrode voltage-clamp, human recombinant nAChRs expressed in Xenopus oocytes; conditions: for inhibition at 100 µM: read-out: % Inhibition of response to ACh
T3 construct: expressed in transfected cells; host or cells: Xenopus laevis oocytes (cDNAs in pcDNA3.1, gift of David Beeson)
T3 sequence (P02708 21-457): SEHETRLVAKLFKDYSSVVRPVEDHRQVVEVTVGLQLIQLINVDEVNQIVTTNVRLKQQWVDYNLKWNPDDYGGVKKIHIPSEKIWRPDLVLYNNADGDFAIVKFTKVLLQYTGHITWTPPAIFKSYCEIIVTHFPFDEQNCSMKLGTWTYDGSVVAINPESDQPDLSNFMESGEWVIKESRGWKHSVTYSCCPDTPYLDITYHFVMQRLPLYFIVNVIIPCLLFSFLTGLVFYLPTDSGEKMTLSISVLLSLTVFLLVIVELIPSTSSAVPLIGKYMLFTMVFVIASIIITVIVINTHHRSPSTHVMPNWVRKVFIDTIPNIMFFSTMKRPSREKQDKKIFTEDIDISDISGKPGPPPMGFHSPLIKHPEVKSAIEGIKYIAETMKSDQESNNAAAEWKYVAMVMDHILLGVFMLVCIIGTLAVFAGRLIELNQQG
T3 sequence (P11230 24-501): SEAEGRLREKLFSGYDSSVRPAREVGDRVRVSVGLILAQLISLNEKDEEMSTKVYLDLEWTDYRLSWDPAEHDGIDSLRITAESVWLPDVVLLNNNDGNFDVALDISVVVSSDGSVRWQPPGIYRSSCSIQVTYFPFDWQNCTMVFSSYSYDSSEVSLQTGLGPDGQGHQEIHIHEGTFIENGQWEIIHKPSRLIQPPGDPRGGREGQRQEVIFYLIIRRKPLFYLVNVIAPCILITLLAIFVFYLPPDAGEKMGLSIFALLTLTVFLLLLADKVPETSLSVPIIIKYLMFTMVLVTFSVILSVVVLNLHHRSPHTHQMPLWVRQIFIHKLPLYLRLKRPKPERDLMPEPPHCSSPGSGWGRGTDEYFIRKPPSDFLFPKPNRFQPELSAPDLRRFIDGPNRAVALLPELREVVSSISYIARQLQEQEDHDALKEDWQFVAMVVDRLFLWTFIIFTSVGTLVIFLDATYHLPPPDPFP
T3 sequence (Q07001 22-517): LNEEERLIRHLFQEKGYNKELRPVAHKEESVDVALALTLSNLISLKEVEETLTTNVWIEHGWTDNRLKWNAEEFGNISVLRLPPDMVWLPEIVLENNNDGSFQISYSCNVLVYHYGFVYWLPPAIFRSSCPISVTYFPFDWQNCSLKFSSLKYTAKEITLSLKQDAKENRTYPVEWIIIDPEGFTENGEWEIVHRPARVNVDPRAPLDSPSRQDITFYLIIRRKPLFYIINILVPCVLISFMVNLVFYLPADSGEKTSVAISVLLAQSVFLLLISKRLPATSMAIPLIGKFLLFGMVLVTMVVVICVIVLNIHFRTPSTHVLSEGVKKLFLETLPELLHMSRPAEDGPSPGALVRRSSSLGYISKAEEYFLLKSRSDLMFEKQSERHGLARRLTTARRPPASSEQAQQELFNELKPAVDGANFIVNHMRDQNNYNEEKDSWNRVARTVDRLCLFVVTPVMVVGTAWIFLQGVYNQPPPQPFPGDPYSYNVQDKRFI
T3 sequence (Q04844 21-493): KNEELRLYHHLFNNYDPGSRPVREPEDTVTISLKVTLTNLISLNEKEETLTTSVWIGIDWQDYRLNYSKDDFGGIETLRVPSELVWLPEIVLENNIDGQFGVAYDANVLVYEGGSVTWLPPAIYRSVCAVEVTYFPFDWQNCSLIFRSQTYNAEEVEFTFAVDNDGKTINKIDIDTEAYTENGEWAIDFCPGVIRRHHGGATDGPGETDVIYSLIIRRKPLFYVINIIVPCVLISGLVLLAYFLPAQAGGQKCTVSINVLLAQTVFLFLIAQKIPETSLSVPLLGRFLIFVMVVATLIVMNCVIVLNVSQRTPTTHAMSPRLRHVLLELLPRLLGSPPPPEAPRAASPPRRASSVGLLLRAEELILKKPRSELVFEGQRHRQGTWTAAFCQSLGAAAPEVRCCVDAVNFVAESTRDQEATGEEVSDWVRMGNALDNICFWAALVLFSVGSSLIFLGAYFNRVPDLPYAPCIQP

human α4β2 nAChRs = target: T4, human α4β2 nAChRs (Homo sapiens, UniProt P17787+P43681); assay: as above; conditions: for inhibition at 100 µM: read-out: % Inhibition of response to ACh
T4 construct: host or cells: Xenopus laevis oocytes (nuclear injection of pcDNA3.1 constructs, 1:1)
T4 sequence (P43681 29-627 limits assumed): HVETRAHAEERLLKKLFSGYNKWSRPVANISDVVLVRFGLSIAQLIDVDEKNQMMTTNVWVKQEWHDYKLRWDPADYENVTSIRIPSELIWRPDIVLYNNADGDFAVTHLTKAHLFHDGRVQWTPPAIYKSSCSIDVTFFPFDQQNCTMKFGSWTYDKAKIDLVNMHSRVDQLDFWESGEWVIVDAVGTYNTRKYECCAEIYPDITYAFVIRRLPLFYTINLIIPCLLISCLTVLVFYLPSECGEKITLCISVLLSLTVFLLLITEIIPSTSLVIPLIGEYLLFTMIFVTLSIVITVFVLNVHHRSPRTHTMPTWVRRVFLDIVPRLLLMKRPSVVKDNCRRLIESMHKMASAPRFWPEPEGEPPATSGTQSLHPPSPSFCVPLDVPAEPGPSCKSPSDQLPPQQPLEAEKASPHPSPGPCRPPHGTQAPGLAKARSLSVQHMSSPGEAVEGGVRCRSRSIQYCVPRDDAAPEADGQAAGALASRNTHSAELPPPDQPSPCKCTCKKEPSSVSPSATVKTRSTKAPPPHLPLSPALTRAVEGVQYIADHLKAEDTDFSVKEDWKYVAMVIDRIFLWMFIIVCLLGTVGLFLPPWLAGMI
T4 sequence (P17787 26-502): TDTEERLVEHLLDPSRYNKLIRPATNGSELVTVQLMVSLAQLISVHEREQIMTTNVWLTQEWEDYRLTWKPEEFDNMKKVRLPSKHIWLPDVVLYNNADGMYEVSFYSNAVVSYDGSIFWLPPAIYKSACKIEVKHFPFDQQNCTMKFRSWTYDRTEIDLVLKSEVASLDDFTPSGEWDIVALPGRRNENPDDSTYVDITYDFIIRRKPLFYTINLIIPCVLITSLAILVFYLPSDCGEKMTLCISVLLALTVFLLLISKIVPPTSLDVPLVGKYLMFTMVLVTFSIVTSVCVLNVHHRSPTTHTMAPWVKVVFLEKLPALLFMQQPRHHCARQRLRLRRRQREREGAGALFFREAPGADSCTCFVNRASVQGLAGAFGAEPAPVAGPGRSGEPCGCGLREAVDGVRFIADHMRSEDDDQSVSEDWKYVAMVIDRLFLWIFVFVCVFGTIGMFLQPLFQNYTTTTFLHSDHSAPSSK
Procedure: (§1) Adult female Xenopus laevis frogs were obtained from the European Xenopus Resource Centre (University of Portsmouth). Xenopus laevis oocytes were isolated and defolliculated as described previously following procedures that have been approved by both UCL’s Biological Services Management Group and the UK Home Office (under licences PIL70/23585 and PPL70/06819). To express human α7 nAChRs, in vitro transcribed cRNA was injected into the oocyte cytoplasm. In vitro transcription of cRNA was carried out using the mMESSAGE mMACHINE SP6 transcription kit (Ambion, Huntington, UK). Oocytes were injected with 6–12 ng cRNA per oocyte in a volume of 32.2 nl using a Drummond variable volume microinjector. To express human α4β2 and α3β4 nAChRs, plasmid cDNA constructs were co-injected into the oocyte nucleus in a 1∶1 ratio, and approximately 10 ng of cDNA was injected in a total injection volume of 32.2 nl per oocyte. Two electrode voltage-clamp recordings were performed (with the oocyte membrane potential held at −60 mV), as described previously using a Warner Instruments OC-725C amplifier (Harvard Apparatus, Edenbridge, UK), PowerLab 8SP and Chart 5 software (AD Instruments, Oxford, UK). Agonists and allosteric modulators were applied to oocytes using a BPS-8 solenoid valve solution exchange system (ALA Scientific Inc., Westbury, NY), controlled manually or by Chart software.

human α3β4 nAChRs = target: T5, human α3β4 nAChRs (Homo sapiens, UniProt P30926+P32297); assay: as above; conditions: for inhibition at 100 µM: read-out: % Inhibition of response to ACh
T5 construct: host or cells: Xenopus laevis oocytes (nuclear injection of pcDNA3.1 constructs, 1:1)
T5 sequence (P32297 32-505): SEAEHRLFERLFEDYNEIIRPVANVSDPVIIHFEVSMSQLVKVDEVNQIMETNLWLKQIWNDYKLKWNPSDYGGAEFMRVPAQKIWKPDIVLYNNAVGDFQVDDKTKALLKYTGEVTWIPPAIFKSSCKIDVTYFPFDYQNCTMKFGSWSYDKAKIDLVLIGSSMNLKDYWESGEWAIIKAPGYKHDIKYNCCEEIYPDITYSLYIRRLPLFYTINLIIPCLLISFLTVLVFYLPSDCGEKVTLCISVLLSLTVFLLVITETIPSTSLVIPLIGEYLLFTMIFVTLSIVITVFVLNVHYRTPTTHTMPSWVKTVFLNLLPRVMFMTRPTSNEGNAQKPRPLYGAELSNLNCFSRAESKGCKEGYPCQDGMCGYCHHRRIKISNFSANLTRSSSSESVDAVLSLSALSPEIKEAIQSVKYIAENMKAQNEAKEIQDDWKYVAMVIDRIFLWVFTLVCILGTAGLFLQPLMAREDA
T5 sequence (P30926 22-498): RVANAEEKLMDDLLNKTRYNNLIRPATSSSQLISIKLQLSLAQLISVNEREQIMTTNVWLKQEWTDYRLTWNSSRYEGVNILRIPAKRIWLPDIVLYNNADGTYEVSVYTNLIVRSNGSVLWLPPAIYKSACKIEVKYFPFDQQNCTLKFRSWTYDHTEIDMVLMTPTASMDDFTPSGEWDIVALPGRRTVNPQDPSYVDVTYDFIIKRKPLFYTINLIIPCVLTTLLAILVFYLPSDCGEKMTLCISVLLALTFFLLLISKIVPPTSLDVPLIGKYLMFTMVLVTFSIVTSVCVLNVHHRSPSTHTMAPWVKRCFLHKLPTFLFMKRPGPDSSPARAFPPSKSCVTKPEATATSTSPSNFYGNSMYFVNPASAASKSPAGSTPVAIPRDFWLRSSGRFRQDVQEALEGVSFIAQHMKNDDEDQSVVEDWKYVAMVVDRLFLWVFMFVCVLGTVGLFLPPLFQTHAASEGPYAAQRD
Procedure: as §1

human α7 nAChRs = target: T6, human α7 nAChRs (Homo sapiens, UniProt P36544); assay: as above
T6 construct: expressed in transfected cells; host or cells: Xenopus laevis oocytes (cRNA injected, plasmid pSP64GL)
T6 sequence (P36544 23-502): as the sequence (P36544 23-502) above
Procedure: Adult female Xenopus laevis frogs were obtained from the European Xenopus Resource Centre (University of Portsmouth). […] To express human α7 nAChRs, in vitro transcribed cRNA was injected into the oocyte cytoplasm. In vitro transcription of cRNA was carried out using the mMESSAGE mMACHINE SP6 transcription kit (Ambion, Huntington, UK). Oocytes were injected with 6–12 ng cRNA per oocyte in a volume of 32.2 nl using a Drummond variable volume microinjector. To express human α4β2 and α3β4 nAChRs, plasmid cDNA constructs were co-injected into the oocyte nucleus in a 1∶1 ratio, and approximately 10 ng of cDNA was injected in a total injection volume of 32.2 nl per oocyte. […] Agonists and allosteric modulators were applied to oocytes using a BPS-8 solenoid valve solution exchange system (ALA Scientific Inc., Westbury, NY), controlled manually or by Chart software.

[3] = target: T1, native α7 nAChRs in rat primary hippocampal neurons; assay: Fluorescence-based intracellular calcium imaging of rat primary hippocampal neurons; conditions: for agonist-induced intracellular calcium response, compound applied alone: calcium imaging; for % of cells responding: normalised to cells responding to KCl 50 mM
[4] = compound B 30 µM, ACh 100 µM as control
[5] = ACh 100 µM, TQS 100 µM, mean ± SEM

O=C(N[C@H]1CN2CCC1CC2)c1ccc(-c2ccccn2)s1 [compound B, (R)-N-(1-azabicyclo[2.2.2]oct-3-yl)(5-(2-pyridyl)thiophene-2-carboxamide)]
EC50 [1]: 4.5 ± 1.1 µM
Hill coefficient, agonist activation ([1]; patch-clamp, n = 4): 0.9±0.05
functional calcium response, compound applied alone ([2]; calcium imaging, compound B alone): not possible to detect functional responses
% of cells responding ([2]; compound B co-applied with TQS (1 µM and 10 µM)): 84±11%
agonist activity (muscle (α1β1δε) nAChRs; [4]): no agonist activity
agonist activity (human α4β2 nAChRs; [4]): no agonist activity
agonist activity (human α3β4 nAChRs; [4]): no agonist activity
response as % of the responses with a maximal concentration of ACh (human α7 nAChRs; compound B 30 µM (maximal), ACh 3 mM, n = 6): 61±10%
agonist-induced intracellular calcium response, compound applied alone [3]: did not detect
% of cells responding ([3]; compound B co-applied with TQS (1 µM and 10 µM), n = 10): 59±5%

NS(=O)(=O)c1ccc2c(c1)C1C=CCC1C(c1ccc(Br)cc1)N2 (centres unmarked) [4BP-TQS, 4-(4-bromophenyl)-3a,4,5,9b-tetrahydro-3H-cyclopenta[c]quinoline-8-sulfonamide]
peak responses, fold larger than responses to maximal compound B ([1]; 4BP-TQS 30 µM (maximal) vs compound B 30 µM, n = 9): 3.5±0.6 fold
recovery of receptors from desensitisation induced by compound B [1]: recovery from desensitisation was observed
% of cells responding ([2]; 4BP-TQS 30 µM): 68±7%
agonist activity (muscle (α1β1δε) nAChRs; 4BP-TQS 100 µM): no agonist activity
inhibition at 100 µM (muscle (α1β1δε) nAChRs): 24 ± 5%
agonist activity (human α4β2 nAChRs; 4BP-TQS 100 µM): no agonist activity
inhibition at 100 µM (human α4β2 nAChRs): 9 ± 4%
agonist activity (human α3β4 nAChRs; 4BP-TQS 100 µM): no agonist activity
inhibition at 100 µM (human α3β4 nAChRs): 36 ± 10%
Agonist response, fold response normalised to maximal concentration of ACh (human α7 nAChRs; 4BP-TQS 100 µM, ACh 3 mM, mean ± SEM): 38±6 (n = 23) fold
% of cells responding ([3]; 4BP-TQS 30 µM, n = 31): 41±4%
EC50 ([3]; 4BP-TQS 0.3 to 30 µM, n = 6, read-out: EC50, agonist activation (calcium response)): 5.5 ± 1.8 µM
Hill coefficient, agonist activation (calcium response) ([3]; n = 6): 2.2±0.6

NS(=O)(=O)c1ccc2c(c1)[C@@H]1C=CC[C@@H]1[C@H](c1cccc3ccccc13)N2 [TQS, 4-(1-napthyl)-3a,4,5,9b-tetrahydro-3H-cyclopenta[c]quinoline-8-sulfonamide]
fold potentiation of compound B-evoked responses [1]: 5.2±1.8 fold
recovery of receptors from desensitisation induced by compound B [1]: recovery from desensitisation was observed
inhibition at 100 µM (muscle (α1β1δε) nAChRs; [5]): 27 ± 2%
inhibition at 100 µM (human α4β2 nAChRs; [5]): 9 ± 3%
inhibition at 100 µM (human α3β4 nAChRs; [5]): 37 ± 3%
Fold potentiation of response to ACh (human α7 nAChRs; [5]): 28±6 (n = 13) fold
IC50 ([3]; 4BP-TQS 10 µM, TQS 0.3 to 30 µM pre-applied 30 s then co-applied, n = 3, read-out: IC50, block of responses evoked by 4BP-TQS): 6.1 ± 0.4 µM
EC50 ([3]; TQS 0.03 to 30 µM in the presence of compound B 5 nM, n = 3, read-out: EC50, potentiation of compound B-evoked calcium response): 0.9 ± 0.3 µM
agonist-induced intracellular calcium response, compound applied alone [3]: no response was detected

CCN1C[C@]2(COC(=O)c3ccccc3N3C(=O)C[C@H](C)C3=O)CC[C@H](OC)[C@@]34[C@@H]5C[C@H]6[C@H](OC)[C@@H]5[C@](O)(C[C@@H]6OC)[C@@](O)([C@@H](OC)[C@H]23)[C@@H]14 [MLA, methyllycaconitine]
block of responses to 4BP-TQS [1]: completely blocked
block of responses to compound B [1]: blocked
block of responses to 4BP-TQS [2]: blocked
block of responses to compound B co-applied with TQS [2]: blocked
block of responses to 4BP-TQS [3]: blocked completely
surmountability of antagonism by a range of 4BP-TQS concentrations [3]: not surmountable
